Patent US20090247579A1, “2-[3H-THIAZOL-2-YLIDINEMETHYL]PYRIDINES AND RELATED COMPOUNDS AND THEIR USE” (CANCER RESEARCH TECHNOLOGY LIMITED, priority 2006, published 2009)

Tests used:
[1] = test system: A2780/cp70 human ovarian, cisplatin resistant, cell line grown as xenograft; experiment: Xenograft study, A2780/cp70 in nude mice; format: in vivo; settings: single bolus day 0, MMR201 1 mg/kg i.v. (tolerated dose), cisplatin 6 mg/kg i.p. (maximum tolerated dose)
Method: (§1) For xenograft experiments, tumour cells were injected into the flanks of athymic nude mice and allowed to establish until palpable tumour could be detected. Following single bolus injection of drug, tumour growth was monitored using calliper measurement of tumour size and calculation of tumour volume.
(§2) Cells in exponential phase of growth were harvested with trypsin and re-suspended in phosphate buffered saline. About 10^7 cells in a total volume of 200 μL of PBS were injected subcutaneously in the right flank of CD1 nude mice. They were used for experiments after about 7 to 10 days by which time the mean tumour diameter was about 0.5 cm.
(§3) Mice were weighed and tumour volumes measured. The mice were randomised in groups of 6 and treated either with the drug or with the solvent alone. The drug was dissolved in DMSO and diluted in sterile PBS just before injection to give a final DMSO concentration of 1%. The drugs solution was prepared such that the injection volume was 5 μL per gram body weight. […]
(§4) Mice were then weighed daily and tumour volumes estimated from two measurements of the diameter taken at a 90° angle. The volume was determined by the formula: v=D^3/6×π, where v=volume and D is the mean diameter. Results (Mean and SEM) are expressed as the relative tumour volume, which is the tumour volume on any given day divided by the initial tumour volume calculated for each mouse.

[2] = test system: HCT116 human colon tumour cell line grown as xenograft; experiment: Xenograft study, HCT116 in nude mice; format: in vivo; settings: single bolus day 0, MMR201 1 or 2 mg/kg i.v. (tolerated doses), cisplatin 6 mg/kg i.p. (maximum tolerated dose)
Method: as §1, §2, §3, §4

PARP cleavage = experiment: Apoptosis as determined by PARP cleavage; format: cell-based
LOVO (MSH2) = experiment: Modified MTT assay, colon panel LOVO; format: cell-based; settings: Homo sapiens, MMR deficient, p53 wt, read-out: MMR201 IC50
Method: (§5) Relative drug sensitivities (Resistance Factor) and IC50 values were determined by a modified MTT assay (see, e.g., Mosmann, 1983; Plumb et al., 1989), as described below: • (1) Trypsinise a sub-confluent monolayer culture and collect cells in growth medium containing serum. Centrifuge the suspension (200 g, 5 minutes) to pellet cells, re-suspend in growth medium, and count cells. Dilute cells to a density of 5×10^3 cells/mL allowing 60 mL of cell suspension for 3 microtitre plates. Transfer cell suspension to a 10 cm petri dish, and with a multichannel pipette add 200 μL to each well of the central 10 columns of a flat bottomed 96-well plate (80 wells per plate) starting with column 2 and ending with column 11. Add 200 μL of growth medium to the 8 wells in columns 1 and 12. […] Pipette 6 mL of growth medium in to each of 7 universal containers (30 mL). Prepare 10 mL of the highest concentration of the drug and transfer 1.5 mL of this solution to the first universal container. Mix and then transfer 1.5 mL to the next universal container. Continue until the seventh universal container is reached. The concentrations should be chosen so that the highest concentration kills most of the cells and the lowest kills none of the cells.

p53 = experiment: Induction of p53 expression; format: cell-based; settings: at doses that were shown to induce apoptosis
CACO2 = experiment: Modified MTT assay, colon panel CACO2; format: cell-based; settings: Homo sapiens, Caco-2, MMR proficient, p53 mut, read-out: MMR201 IC50
Method: as §5

SMILES: CC[n+]1c(/C=C2\Sc3oc4ccccc4c3N2C)ccc2cc(C)ccc21.[I-] [MMR201]
- Tumour growth (relative tumour volume) of A2780/cp70 xenograft [1]: can inhibit growth
- Tumour growth (relative tumour volume) of HCT116 xenograft [2]: inhibits growth
- Apoptosis in MLH1 negative cells (PARP cleavage; MLH1 negative cells, PARP cleavage, 24 hours): increased apoptosis at lower drug concentrations
- Apoptosis as determined by PARP cleavage (PARP cleavage; incubation for 24 hours): induces apoptosis
- IC50 (LOVO (MSH2)): 431 ± 11.2 nM
- Induction of p53 expression (p53): does not induce expression of p53
- IC50 (CACO2): 474 ± 16 nM
